Reference: PubChem BioAssay AID1259407 (Chemical Carcinogenesis Research Information System (CCRIS), 2018)
The source made the active and inactive calls. How the calls were made is not given here.

Test system: CCRIS mutagenicity, Ames/micronucleus/aberration tests
Assay: CCRIS mutagenicity studies
Conditions: Method: PREINCUBATION
[1] = Test System: AMES SALMONELLA TYPHIMURIUM, Strain/Indicator: TA98, Metabolic Activation: NONE
[2] = Test System: AMES SALMONELLA TYPHIMURIUM, Strain/Indicator: TA100, Metabolic Activation: NONE
[3] = Test System: AMES SALMONELLA TYPHIMURIUM, Strain/Indicator: TA1535, Metabolic Activation: NONE
[4] = Test System: AMES SALMONELLA TYPHIMURIUM, Strain/Indicator: TA1537, Metabolic Activation: NONE

Measured: mutagenic call

COc1ccc(C(=O)Nc2ccccc2)cc1[N+](=O)[O-]
inactive: Test System: AMES SALMONELLA TYPHIMURIUM, Strain/Indicator: TA97, Metabolic Activation: NONE inactive; negative | [1] inactive; negative | Test System: AMES SALMONELLA TYPHIMURIUM, Strain/Indicator: TA1535, Metabolic Activation: HAMSTER, LIVER, S-9, AROCLOR 1254 (10%) inactive; negative | [3] inactive; negative | Test System: AMES SALMONELLA TYPHIMURIUM, Strain/Indicator: TA1535, Metabolic Activation: RAT, LIVER, S-9, AROCLOR 1254 (10%) inactive; negative | [4] inactive; negative
active: Test System: AMES SALMONELLA TYPHIMURIUM, Strain/Indicator: TA97, Metabolic Activation: HAMSTER, LIVER, S-9, AROCLOR 1254 (10%) active; positive | Test System: AMES SALMONELLA TYPHIMURIUM, Strain/Indicator: TA97, Metabolic Activation: RAT, LIVER, S-9, AROCLOR 1254 (10%) active; positive | Test System: AMES SALMONELLA TYPHIMURIUM, Strain/Indicator: TA98, Metabolic Activation: HAMSTER, LIVER, S-9, AROCLOR 1254 (10%) active; positive | Test System: AMES SALMONELLA TYPHIMURIUM, Strain/Indicator: TA98, Metabolic Activation: RAT, LIVER, S-9, AROCLOR 1254 (10%) active; positive | Test System: AMES SALMONELLA TYPHIMURIUM, Strain/Indicator: TA100, Metabolic Activation: HAMSTER, LIVER, S-9, AROCLOR 1254 (10%) active; positive | [2] active; positive | Test System: AMES SALMONELLA TYPHIMURIUM, Strain/Indicator: TA100, Metabolic Activation: RAT, LIVER, S-9, AROCLOR 1254 (10%) active; positive | Test System: AMES SALMONELLA TYPHIMURIUM, Strain/Indicator: TA1537, Metabolic Activation: HAMSTER, LIVER, S-9, AROCLOR 1254 (10%) active; positive | Test System: AMES SALMONELLA TYPHIMURIUM, Strain/Indicator: TA1537, Metabolic Activation: RAT, LIVER, S-9, AROCLOR 1254 (10%) active; positive

O=S1(=O)CCCC1
inactive: [1] inactive; negative | Test System: AMES SALMONELLA TYPHIMURIUM, Strain/Indicator: TA98, Metabolic Activation: RAT, LIVER, S-9, KC 500 inactive; negative | [2] inactive; negative | Test System: AMES SALMONELLA TYPHIMURIUM, Strain/Indicator: TA100, Metabolic Activation: RAT, LIVER, S-9, KC 500 inactive; negative | [3] inactive; negative | Test System: AMES SALMONELLA TYPHIMURIUM, Strain/Indicator: TA1535, Metabolic Activation: RAT, LIVER, S-9, KC 500 inactive; negative | [4] inactive; negative | Test System: AMES SALMONELLA TYPHIMURIUM, Strain/Indicator: TA1537, Metabolic Activation: RAT, LIVER, S-9, KC 500 inactive; negative | Test System: AMES SALMONELLA TYPHIMURIUM, Strain/Indicator: TA1538, Metabolic Activation: NONE inactive; negative | Test System: AMES SALMONELLA TYPHIMURIUM, Strain/Indicator: TA1538, Metabolic Activation: RAT, LIVER, S-9, KC 500 inactive; negative | Test System: E. COLI, Strain/Indicator: WP2 UVRA, Metabolic Activation: NONE inactive; negative | Test System: E. COLI, Strain/Indicator: WP2 UVRA, Metabolic Activation: RAT, LIVER, S-9, KC 500 inactive; negative
